System: 439559-082-T-J2-PDC spheroid viability
Assay: Anticancer human tumor 439559-082-T-J2-PDC patient-derived colon adenocarcinoma cell line growth inhibition [POLQ]
Settings: spheroids with HUVEC and MSC; for IC50: curve of first compound; for viability, T/C: stronger effect = lower value
Procedure: Multicellular complex tumor spheroid response to Polymerase (POL) inhibitors (novobiocin, ART-558, RP6685) in combination with a variety of drugs and investigational agents in selected tumor cell lines
The POL inhibitors (novobiocin, ART-558, and RP6685) were evaluated both individually and in combination with standard of care and investigational anticancer small molecules within a complex spheroid model of solid tumors. . Complex spheroids include a stromal component modeled by human endothelial cells (HUVEC) and fibroblasts modeled by human mesenchymal stem cells (MSCs). The concentration ranges selected for each drug and investigational agent were based upon clinically achievable concentrations if the clinical Cmax of the agent was known.
Compounds. The drugs and investigational agents: novobiocin (NSC847541), ART-558 (NSC835418), RP-6685 (NSC848927), peposertib (NSC802822), ceralasertib (NSC780249), elimusertib (NSC800525), camonsertib (NSC841442), AZD-1390 (NSC803789), olaparib (NSC753686), talazoparib (NSC767125), rucaparib (NSC756644), sotorasib (NSC818433), MRTX-1133 (NSC836407), SN-38 (NSC673596), topotecan (NSC609699), epotoside (NSC141540), doxorubicin (NSC123127), gemcitabine (NSC613327), 5-fluorouracil (NSC19893), paclitaxel (NSC125973), vemurafenib (NSC761431), MSA-2 (NSC828583), SN-011 (NSC837082), adavosertib (NSC754352), prexasertib (NSC758257), carboplatin (NSC241240) and oxaliplatin (NSC266046), were obtained from the National Cancer Institute (NCI) Developmental Therapeutics Program Chemical Repository (21). The FDA-approved anticancer drug set is available from the Developmental Therapeutics Program at https://dtp.cancer.gov/organization/dscb/obtaining/. […] The stock solutions were prepared in dimethyl sulfoxide (DMSO, Sigma-Aldrich, St. Louis, MO, cat. D2650), except for the platinum compounds which were prepared in saline (Quality Biological, Gaithersburg, MD, cat. 114-055-101), at 800-fold the tested concentration and stored at -70 degrees C prior to their use. All drugs and investigational agents were tested over a range starting from a high concentration at or near the clinical Cmax and decreasing in half-log increments. If the clinical Cmax for an agent had not been determined, the highest concentration tested was 10 microM, except for SN-38, which was tested at a high concentration of 1 microM.
Cell Culture. All cells were maintained in an incubator at 37 degrees C and 5% CO2 with 95% humidity. The PDC lines were cultured according to standard operating procedures established by the NCI PDMR (https://pdmr.cancer.gov). Table 3 of the manuscript, lists the cell lines along with the number of the three cell types plated to form the mct-spheroids and media for tumor cell growth. After thawing, all PDC lines, except 997537-175-T-J1-PDC and 415267-285-R-J2-PDC, were cultured in Matrigel-coated flasks prepared with a working solution of 1X Ham's F-12 nutrient mix, without supplementation (Thermo Fisher Scientific, cat. 11765054), 100 U/mL penicillin-streptomycin (Thermo Fisher Scientific, cat. 15140122), and 2.5% Matrigel (Corning Inc., Corning, NY, cat. 354248) for the first three passages. The two PDC lines 997537-175-T-J1-PDC and 415267-285-R-J2-PDC were cultured on uncoated flasks. The 857933-349-R-J2-PDC line was cultured in 6C/Colon 1B media containing advanced DMEM/F-12 (Thermo Fisher Scientific, cat. 12634028), 10 mM HEPES (Thermo Fisher Scientific, cat. 15630080), 1X GlutaMAX supplement (Thermo Fisher Scientific, cat. 35050061), 0.1 mg/mL primocin (InvivoGen, San Diego, CA, cat. ant-pm-2), 10% defined fetal bovine serum, heat inactivated (HyClone Laboratories Inc., Logan, UT, cat. SH30070.03HI), 50% L-WRN conditioned media (ATCC, cat. CRL-3276), 1.25 mM N-Acetyl-L-cysteine (Sigma-Aldrich, cat. A9165), 10 mM nicotinamide (Sigma-Aldrich, cat. N0636), 1X B-27 supplement (Thermo Fisher Scientific, cat. 17504044), 1X N-2 supplement (Thermo Fisher Scientific, cat. […]

[1] = second compound 0.0316 µM, first compound 0.0316 µM
[2] = second compound 0.0316 µM, first compound 0.1 µM
[3] = second compound 0.0316 µM, first compound 0.316 µM
[4] = second compound 0.0316 µM, first compound 1 µM
[5] = second compound 0.0316 µM, first compound 3.16 µM
[6] = second compound 0.0316 µM, first compound 10 µM
[7] = second compound 0.1 µM, first compound 0.0316 µM
[8] = second compound 0.1 µM, first compound 0.1 µM
[9] = second compound 0.1 µM, first compound 0.316 µM
[10] = second compound 0.1 µM, first compound 1 µM
[11] = second compound 0.1 µM, first compound 3.16 µM
[12] = second compound 0.1 µM, first compound 10 µM
[13] = second compound 0.316 µM, first compound 0.0316 µM
[14] = second compound 0.316 µM, first compound 0.1 µM
[15] = second compound 0.316 µM, first compound 0.316 µM
[16] = second compound 0.316 µM, first compound 1 µM
[17] = second compound 0.316 µM, first compound 3.16 µM
[18] = second compound 0.316 µM, first compound 10 µM
[19] = second compound 1 µM, first compound 0.0316 µM
[20] = second compound 1 µM, first compound 0.1 µM
[21] = second compound 1 µM, first compound 0.316 µM
[22] = second compound 1 µM, first compound 1 µM
[23] = second compound 1 µM, first compound 3.16 µM
[24] = second compound 1 µM, first compound 10 µM
[25] = second compound 3.16 µM, first compound 0.0316 µM
[26] = second compound 3.16 µM, first compound 0.1 µM
[27] = second compound 3.16 µM, first compound 0.316 µM
[28] = second compound 3.16 µM, first compound 1 µM
[29] = second compound 3.16 µM, first compound 3.16 µM
[30] = second compound 3.16 µM, first compound 10 µM
[31] = second compound 10 µM, first compound 0.0316 µM
[32] = second compound 10 µM, first compound 0.1 µM
[33] = second compound 10 µM, first compound 0.316 µM
[34] = second compound 10 µM, first compound 1 µM
[35] = second compound 10 µM, first compound 3.16 µM
[36] = second compound 10 µM, first compound 10 µM
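Note: spheroids exposed to compounds for seven days before readout.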
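Throughout, for viability, T/C: 100% = DMSO vehicle control viability.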

Question: Which results are given for `C=CC(=O)N1CCN(c2nc(=O)n(-c3c(C)ccnc3C(C)C)c3nc(-c4c(O)cccc4F)c(F)cc23)C(C)C1` (centres undefined) + COC1C(OC(N)=O)C(O)C(Oc2ccc3c(O)c(NC(=O)c4ccc(O)c(CC=C(C)C)c4)c(=O)oc3c2C)OC1(C)C?
Answer: IC50 (second compound 0.0316 µM): > 10 µM; IC50 (second compound 0.1 µM): > 10 µM; IC50 (second compound 0.316 µM): > 10 µM; IC50 (second compound 1 µM): > 10 µM; IC50 (second compound 3.16 µM): > 10 µM; IC50 (second compound 10 µM): > 10 µM; viability, T/C [1]: 95.8%; viability, T/C [2]: 93.5%; viability, T/C [3]: 104%; viability, T/C [4]: 101%; viability, T/C [5]: 104%; viability, T/C [6]: 91.4%; viability, T/C [7]: 96.7%; viability, T/C [8]: 105%; viability, T/C [9]: 98%; viability, T/C [10]: 101%; viability, T/C [11]: 106%; viability, T/C [12]: 96.9%; viability, T/C [13]: 103%; viability, T/C [14]: 96.3%; viability, T/C [15]: 99.7%; viability, T/C [16]: 101%; viability, T/C [17]: 107%; viability, T/C [18]: 98.6%; viability, T/C [19]: 106%; viability, T/C [20]: 105%; viability, T/C [21]: 97.6%; viability, T/C [22]: 101%; viability, T/C [23]: 109%; viability, T/C [24]: 98.8%; viability, T/C [25]: 98.1%; viability, T/C [26]: 101%; viability, T/C [27]: 101%; viability, T/C [28]: 104%; viability, T/C [29]: 98.5%; viability, T/C [30]: 102%; viability, T/C [31]: 103%; viability, T/C [32]: 92.8%; viability, T/C [33]: 98.8%; viability, T/C [34]: 109%; viability, T/C [35]: 106%; viability, T/C [36]: 98.8%

Question: `CC(C)n1c(=O)n(C)c2cnc3cc(F)c(-c4ccc(OCCCN5CCCCC5)nc4)cc3c21` + COC1C(OC(N)=O)C(O)C(Oc2ccc3c(O)c(NC(=O)c4ccc(O)c(CC=C(C)C)c4)c(=O)oc3c2C)OC1(C)C was tested. Which IC50 (second compound 0.0316 µM) did it give?
Answer: > 10 µM

Question: What about the IC50 (second compound 0.1 µM) of the same compound?
Answer: > 10 µM

Question: What about the IC50 (second compound 0.316 µM) of the same compound?
Answer: > 10 µM

Question: What about the IC50 (second compound 1 µM) of the same compound?
Answer: > 10 µM

Question: What about the IC50 (second compound 3.16 µM) of the same compound?
Answer: > 10 µM

Question: What about the IC50 (second compound 10 µM) of the same compound?
Answer: > 10 µM

Question: And the viability, T/C [1]?
Answer: 97.8%

Question: And the viability, T/C [2]?
Answer: 102%

Question: What about the viability, T/C [3] of the same compound?
Answer: 109%

Question: And the viability, T/C [4]?
Answer: 116%

Question: And the viability, T/C [5]?
Answer: 113%

Question: And the viability, T/C [6]?
Answer: 102%

Question: What about the viability, T/C [7] of the same compound?
Answer: 111%

Question: And the viability, T/C [8]?
Answer: 109%

Question: And the viability, T/C [9]?
Answer: 110%

Question: And the viability, T/C [10]?
Answer: 119%

Question: And the viability, T/C [11]?
Answer: 102%

Question: What about the viability, T/C [12] of the same compound?
Answer: 99.4%

Question: And the viability, T/C [13]?
Answer: 119%

Question: And the viability, T/C [14]?
Answer: 109%

Question: What about the viability, T/C [15] of the same compound?
Answer: 109%

Question: What about the viability, T/C [16] of the same compound?
Answer: 112%

Question: And the viability, T/C [17]?
Answer: 107%

Question: And the viability, T/C [18]?
Answer: 91.2%

Question: And the viability, T/C [19]?
Answer: 110%

Question: What about the viability, T/C [20] of the same compound?
Answer: 111%

Question: And the viability, T/C [21]?
Answer: 111%

Question: What about the viability, T/C [22] of the same compound?
Answer: 109%

Question: And the viability, T/C [23]?
Answer: 110%

Question: And the viability, T/C [24]?
Answer: 95%

Question: What about the viability, T/C [25] of the same compound?
Answer: 105%

Question: What about the viability, T/C [26] of the same compound?
Answer: 107%

Question: What about the viability, T/C [27] of the same compound?
Answer: 106%

Question: What about the viability, T/C [28] of the same compound?
Answer: 112%

Question: And the viability, T/C [29]?
Answer: 111%

Question: What about the viability, T/C [30] of the same compound?
Answer: 97.6%

Question: What about the viability, T/C [31] of the same compound?
Answer: 103%

Question: What about the viability, T/C [32] of the same compound?
Answer: 96.9%

Question: What about the viability, T/C [33] of the same compound?
Answer: 106%

Question: And the viability, T/C [34]?
Answer: 106%

Question: What about the viability, T/C [35] of the same compound?
Answer: 113%

Question: And the viability, T/C [36]?
Answer: 102%

Source: PubChem BioAssay AID1963841 (Molecular Pharmacology Branch, DTP, NCI, 2024)
